Experimental data published in US10065990B2, “Cyclic peptide compound, and preparation method, pharmaceutical composition and use thereof” (HANGZHOU GUANYU BIO-MEDICAL CO., LTD, priority 2013, dated 2018).
Like-named read-outs stand apart in the source and are kept apart here.

Legend:
HDAC7 = biological target: T1, HDAC7 (Homo sapiens, UniProt Q8WUI4); assay: HDAC biochemical activity measurement (fluorescent substrate deacetylation);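 further: fluorogenic deacetylation assay using acetyl-lysine substrate at 20 µM, enzyme and compound incubated 30 min at 37 °C, then developer added, fluorescence read at 360/460 nm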; conditions: HDAC7; 37° C. 30 minutes
T1 sequence (Q8WUI4 1-952): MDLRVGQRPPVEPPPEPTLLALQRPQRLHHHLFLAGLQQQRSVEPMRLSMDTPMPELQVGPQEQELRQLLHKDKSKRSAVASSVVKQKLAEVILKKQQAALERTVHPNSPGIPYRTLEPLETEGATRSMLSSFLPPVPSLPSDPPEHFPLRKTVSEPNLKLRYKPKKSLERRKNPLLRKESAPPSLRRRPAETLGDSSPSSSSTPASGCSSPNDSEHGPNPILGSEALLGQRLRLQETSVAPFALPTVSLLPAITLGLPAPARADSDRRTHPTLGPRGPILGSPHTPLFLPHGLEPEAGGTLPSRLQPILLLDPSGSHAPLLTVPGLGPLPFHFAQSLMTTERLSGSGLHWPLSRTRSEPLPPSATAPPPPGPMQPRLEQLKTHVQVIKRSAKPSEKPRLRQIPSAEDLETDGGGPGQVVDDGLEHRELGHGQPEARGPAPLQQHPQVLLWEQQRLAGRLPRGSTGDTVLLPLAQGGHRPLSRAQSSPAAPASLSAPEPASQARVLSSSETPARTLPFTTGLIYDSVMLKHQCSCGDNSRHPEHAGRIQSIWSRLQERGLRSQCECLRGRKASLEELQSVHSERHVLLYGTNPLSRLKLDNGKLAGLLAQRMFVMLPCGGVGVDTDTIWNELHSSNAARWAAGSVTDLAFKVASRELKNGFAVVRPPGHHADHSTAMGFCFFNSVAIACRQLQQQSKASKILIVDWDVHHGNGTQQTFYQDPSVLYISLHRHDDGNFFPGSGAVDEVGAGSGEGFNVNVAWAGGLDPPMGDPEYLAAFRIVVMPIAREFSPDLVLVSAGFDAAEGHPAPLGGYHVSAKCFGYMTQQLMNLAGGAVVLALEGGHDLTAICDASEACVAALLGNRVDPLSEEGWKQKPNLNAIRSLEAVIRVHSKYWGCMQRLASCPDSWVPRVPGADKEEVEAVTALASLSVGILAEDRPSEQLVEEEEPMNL

[1] = system: A549 (human lung cancer cells); assay: MTT cancer cell growth inhibition; format: cell-based; conditions: Homo sapiens, A549, 72 h, read-out: GI50 A54
Excerpt: (§1) MTT assay principle is yellow MTT can penetrate membrane into the cell, succinic dehydrogenase of the mitochondria in living cells can make exogenous MTT reduction of insoluble in water of blue-violet acicular formazan for crystallization and deposition in the cell, crystallization can be dissolved dimethyl sulfoxide (DMSO) solution, detected its absorbance at 490 nm/570 nm wavelength by enzyme-linked immunosorbent assay, which can reflect the number of cells.
(§2) Using DMEM+10% FBS culture medium or using 1640+10% FBS culture, respectively.
(§3) a) Cells were seeded in 96-well plates with the inoculation of 1500/well, 190 μl/hole, 37° C., 5% of CO2 incubator overnight;
(§4) b) The next day each well was added 10 μl of different drugs. The final concentration of drug was 10^−5˜10^−10M, three parallel holes; 37° C., 5% CO2 culture incubator for 72 hours incubation;
(§5) c) Per well was added 20 μl 5 mg/ml of MTT, 37° C., 5% CO2 culture incubator for 4 hours incubation;
(§6) d) The supernatant was discarded. Each well was added 100 μl of DMSO and oscillation;
(§7) e) 570 nm readings. Calculate cell viability. GI50 calculation based on the results.

[2] = system: BGC-823 (human gastric cancer cells); assay: MTT cancer cell growth inhibition; format: cell-based; conditions: read-out: GI50 BG
Excerpt: as §1, §2, §3, §4, §5, §6, §7

[3] = system: Bel-7402 (human hepatoma cells); assay: MTT cancer cell growth inhibition; format: cell-based; conditions: Homo sapiens, Bel-7402, 72 h, read-out: GI50 Bel-7402
Excerpt: as §1, §2, §3, §4, §5, §6, §7

[4] = system: DU145 (human prostate cancer cells); assay: MTT cancer cell growth inhibition; format: cell-based; conditions: Homo sapiens, DU-145, 72 h, read-out: GI50 Du1
Excerpt: as §1, §2, §3, §4, §5, §6, §7

[5] = system: H1975 (non-small cell lung adenocarcinoma); assay: MTT cancer cell growth inhibition; format: cell-based; conditions: Homo sapiens, NCI-H1975, 72 h, read-out: GI50 H1975
Excerpt: as §1, §2, §3, §4, §5, §6, §7

[6] = system: HCC827 (human non-small cell lung cancer cells); assay: MTT cancer cell growth inhibition; format: cell-based; conditions: Homo sapiens, HCC827, 72 h, read-out: GI50 HCC827
Excerpt: as §1, §2, §3, §4, §5, §6, §7

[7] = system: HT1080 (human fibrosarcoma cells); assay: MTT cancer cell growth inhibition; format: cell-based; conditions: Homo sapiens, HT-1080, 72 h, read-out: GI50 HT1
Excerpt: as §1, §2, §3, §4, §5, §6, §7

[8] = system: Hela (human cervical cancer cells); assay: MTT cancer cell growth inhibition; format: cell-based; conditions: read-out: GI50 Hela
Excerpt: as §1, §2, §3, §4, §5, §6, §7

[9] = system: Huh-7 (human hepatoma cells); assay: MTT cancer cell growth inhibition; format: cell-based; conditions: Homo sapiens, Huh-7, 72 h, read-out: GI50 Huh-7
Excerpt: as §1, §2, §3, §4, §5, §6, §7

[10] = system: K562 (human leukemia cells); assay: MTT cancer cell growth inhibition; format: cell-based; conditions: read-out: GI50 K562
Excerpt: as §1, §2, §3, §4, §5, §6, §7

[11] = system: KBM-5 (human chronic myelogenous leukemia); assay: MTT cancer cell growth inhibition; format: cell-based; conditions: read-out: GI50 KBM-5
Excerpt: as §1, §2, §3, §4, §5, §6, §7

[12] = system: KBM5-T315I (human chronic myelogenous leukemia); assay: MTT cancer cell growth inhibition; format: cell-based; conditions: Homo sapiens, 72 h, read-out: GI50 KBM5-T315I
Excerpt: as §1, §2, §3, §4, §5, §6, §7

[13] = system: MDA-MB-231 (breast cancer cells); assay: MTT cancer cell growth inhibition; format: cell-based
Excerpt: as §1, §2, §3, §4, §5, §6, §7

[14] = system: MOLT-4 (human acute lymphoblastic leukemia cells); assay: MTT cancer cell growth inhibition; format: cell-based; conditions: Homo sapiens, MOLT-4, 72 h, read-out: GI50 Mol
Excerpt: as §1, §2, §3, §4, §5, §6, §7

[15] = system: N-87 (human gastric cancer cells); assay: MTT cancer cell growth inhibition; format: cell-based; conditions: read-out: GI50 N-87
Excerpt: as §1, §2, §3, §4, §5, §6, §7

[16] = system: PANC-1 (Pac-1, human pancreatic cancer cells); assay: MTT cancer cell growth inhibition; format: cell-based; conditions: Homo sapiens, PANC-1, 72 h, read-out: GI50 PAN
Excerpt: as §1, §2, §3, §4, §5, §6, §7

[17] = system: SGC-7901 (human gastric cancer cells); assay: MTT cancer cell growth inhibition; format: cell-based; conditions: read-out: GI50 SGC-7901
Excerpt: as §1, §2, §3, §4, §5, §6, §7

[18] = system: U937 (human leukemia cells); assay: MTT cancer cell growth inhibition; format: cell-based; conditions: Homo sapiens, U-937, 72 h, read-out: GI50 U93
Excerpt: as §1, §2, §3, §4, §5, §6, §7

[19] = system: lncap (prostate cancer cells); assay: MTT cancer cell growth inhibition; format: cell-based; conditions: read-out: GI50 lnca
Excerpt: as §1, §2, §3, §4, §5, §6, §7

[20] = system: MCF-7 (human breast cancer cells); assay: MTT cancer cell growth inhibition; format: cell-based; conditions: Homo sapiens, MCF7, 72 h, MCF-7 cells, 72 hours incubation, read-out: GI50 MCF
Excerpt: as §1, §2, §3, §4, §5, §6, §7

[21] = A549 cells, MTT, 72 hours incubation
[22] = MTT, 72 hours incubation, Bel-7402 cells
[23] = DU145 cells, MTT, 72 hours incubation
[24] = MTT, 72 hours incubation, H1975 cells
[25] = MTT, 72 hours incubation, HCC827 cells
[26] = HT1080 cells, MTT, 72 hours incubation
[27] = MTT, 72 hours incubation, Huh-7 cells
[28] = MTT, 72 hours incubation, KBM5-T315I cells
[29] = MOLT-4 cells, MTT, 72 hours incubation
[30] = PANC-1 cells, MTT, 72 hours incubation
[31] = U937 cells, MTT, 72 hours incubation

## O=C(CCCCCCC(=O)Nc1ccccc1)NO [SAHA, suberoylanilide hydroxamic acid, reference compound]
HDAC7
  IC50 HDAC7: no activity
[1]
  GI50: 8530 nM
[2]; Homo sapiens, BGC-823, 72 h
  GI50: 5230 nM
[3]
  GI50: 12700 nM
[4]
  GI50: 15200 nM
[5]
  GI50: 15200 nM
[6]
  GI50: 16700 nM
[7]
  GI50: 3970 nM
[8]; Homo sapiens, HeLa, 72 h
  GI50: 30200 nM
[9]
  GI50: 18300 nM
[10]; Homo sapiens, K562, 72 h
  GI50: 10100 nM
[11]; Homo sapiens, KBM5, 72 h
  GI50: 11200 nM
[12]
  GI50: 86700 nM
[13]; Homo sapiens, MDA-MB-231, 72 h, read-out: GI50 MDA-MB-231
  GI50: 22500 nM
[14]
  GI50: 10000 nM
[15]; Homo sapiens, 72 h
  GI50: 13200 nM
[16]
  GI50: 7620 nM
[17]; Homo sapiens, SGC-7901, 72 h
  GI50: 12500 nM
[18]
  GI50: 2350 nM
[19]; Homo sapiens, LNCaP, 72 h
  GI50: 4610 nM

## C/C=C1\NC(=O)c2cc(SC)cc(n2)CNC(=O)C[C@@H](/C=C/CCSC(C)=O)OC(=O)[C@H](C)NC1=O [Compound 184]
HDAC7
  IC50 HDAC7: no activity
[1]; [21]
  GI50: 110 nM
[2]; BGC-823 cells, MTT, 72 hours incubation
  GI50: 50 nM
[3]; [22]
  GI50: 56 nM
[4]; [23]
  GI50: 60 nM
[5]; [24]
  GI50: 58 nM
[6]; [25]
  GI50: 62 nM
[7]; [26]
  GI50: 80 nM
[8]; Hela cells, MTT, 72 hours incubation
  GI50: 20 nM
[9]; [27]
  GI50: 38 nM
[10]; MTT, 72 hours incubation, K562 cells
  GI50: 23 nM
[11]; MTT, 72 hours incubation, KBM-5 cells
  GI50: 78 nM
[12]; [28]
  GI50: 43 nM
[13]; read-out: GI50 MDA-MB-231, MTT, 72 hours incubation, MDA-MB-231 cells
  GI50: 74 nM
[14]; [29]
  GI50: 30 nM
[15]; MTT, 72 hours incubation, N-87 cells
  GI50: 42 nM
[16]; [30]
  GI50: 60 nM
[17]; MTT, 72 hours incubation, SGC-7901 cells
  GI50: 11 nM
[18]; [31]
  GI50: 30 nM
[19]; lncap cells, MTT, 72 hours incubation
  GI50: 20 nM

## C=C1NC(=O)c2ccc(SC)c(n2)CNC(=O)C[C@@H](/C=C/CCSC(C)=O)OC(=O)[C@H](C(C)C)NC1=O [Compound 206]
HDAC7
  IC50 HDAC7: no activity
[1]; [21]
  GI50: 50 nM
[2]; Homo sapiens, BGC-823, 72 h, BGC-823 cells, MTT, 72 hours incubation
  GI50: 20 nM
[3]; [22]
  GI50: 48 nM
[4]; [23]
  GI50: 10 nM
[5]; [24]
  GI50: 75 nM
[6]; [25]
  GI50: 12 nM
[7]; [26]
  GI50: 10 nM
[9]; [27]
  GI50: 39 nM
[10]; Homo sapiens, K562, 72 h, MTT, 72 hours incubation, K562 cells
  GI50: 61 nM
[11]; Homo sapiens, KBM5, 72 h, MTT, 72 hours incubation, KBM-5 cells
  GI50: 27 nM
[12]; [28]
  GI50: 39 nM
[20]
  GI50: 30 nM
[13]; Homo sapiens, MDA-MB-231, 72 h, read-out: GI50 MDA-MB-231, MTT, 72 hours incubation, MDA-MB-231 cells
  GI50: 76 nM
[14]; [29]
  GI50: 20 nM
[15]; Homo sapiens, 72 h, MTT, 72 hours incubation, N-87 cells
  GI50: 97 nM
[16]; [30]
  GI50: 20 nM
[17]; Homo sapiens, SGC-7901, 72 h, MTT, 72 hours incubation, SGC-7901 cells
  GI50: 82 nM
[18]; [31]
  GI50: 60 nM
[19]; Homo sapiens, LNCaP, 72 h, lncap cells, MTT, 72 hours incubation
  GI50: 70 nM
